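96-well plates; 48 h exposure; 5 concentrations. Endpoints by linear interpolation between flanking doses. Not reached: highest tested concentration assigned. GI50: concentration for 50% inhibition of growth.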 Active and inactive are the calls of the source. Cut-off read from the data, not from the text of the source: active = GI50 up to about 1.1 µM and inactive = higher.
Tests used:
Assay in all cases: inhibition of tumour cell growth, NCI panel, 48 h
NCI-H23 = tested on: NCI-H23
CCRF-CEM = tested on: CCRF-CEM
A549 = tested on: A549
OVCAR-3 = tested on: OVCAR-3
UO-31 = tested on: UO-31
EKVX = tested on: EKVX
MOLT-4 = tested on: MOLT-4
SF-539 = tested on: SF-539
RXF 393 = tested on: RXF 393
Malme-3M = tested on: Malme-3M
SNB-75 = tested on: SNB-75
KM12 = tested on: KM12
M19-MEL = tested on: M19-MEL
DMS-273 = tested on: DMS-273
HT-29 = tested on: HT-29
SK-MEL-5 = tested on: SK-MEL-5
HCT-116 = tested on: HCT-116
U-251 = tested on: U-251
COLO 205 = tested on: COLO 205
LOX IMVI = tested on: LOX IMVI
SF-268 = tested on: SF-268
K562 = tested on: K562
SK-OV-3 = tested on: SK-OV-3
DLD-1 = tested on: DLD-1
ACHN = tested on: ACHN
UACC-62 = tested on: UACC-62
NCI-H226 = tested on: NCI-H226
HOP-62 = tested on: HOP-62
KM-20L2 = tested on: KM-20L2
SR = tested on: SR
786-0 = tested on: 786-0
M14 = tested on: M14
IGROV-1 = tested on: IGROV-1
OVCAR-8 = tested on: OVCAR-8
NCI-H522 = tested on: NCI-H522
HCC 2998 = tested on: HCC 2998
LXFL 529 = tested on: LXFL 529
SW-620 = tested on: SW-620
XF498 = tested on: XF498
HCT-15 = tested on: HCT-15
SK-MEL-28 = tested on: SK-MEL-28
SNB-78 = tested on: SNB-78
OVCAR-4 = tested on: OVCAR-4
SK-MEL-2 = tested on: SK-MEL-2
SNB-19 = tested on: SNB-19
UACC-257 = tested on: UACC-257
SN12C = tested on: SN12C
TK-10 = tested on: TK-10
NCI-H460 = tested on: NCI-H460
SF-295 = tested on: SF-295
HL-60 = tested on: HL-60
CAKI-1 = tested on: CAKI-1
HOP-92 = tested on: HOP-92
DMS-114 = tested on: DMS-114
OVCAR-5 = tested on: OVCAR-5
A498 = tested on: A498
HOP-18 = tested on: HOP-18

## CCC(C)CNC1=C(NC(C)=O)C(=O)c2ccccc2C1=O (stereo not given)
NCI-H23
  GI50: 67.8 µM (inactive)
CCRF-CEM
  GI50: > 100 µM (inactive)
A549
  GI50: > 100 µM (inactive)
OVCAR-3
  GI50: 55.7 µM (inactive)
UO-31
  GI50: > 100 µM (inactive)
EKVX
  GI50: > 100 µM (inactive)
MOLT-4
  GI50: > 100 µM (inactive)
SF-539
  GI50: > 100 µM (inactive)
RXF 393
  GI50: > 100 µM (inactive)
Malme-3M
  GI50: 35.5 µM (inactive)
SNB-75
  GI50: > 100 µM (inactive)
KM12
  GI50: > 100 µM (inactive)
M19-MEL
  GI50: 20.7 µM (inactive)
DMS-273
  GI50: > 100 µM (inactive)
HT-29
  GI50: > 100 µM (inactive)
SK-MEL-5
  GI50: 31.6 µM (inactive)
HCT-116
  GI50: > 100 µM (inactive)
U-251
  GI50: > 100 µM (inactive)
COLO 205
  GI50: 78.9 µM (inactive)
LOX IMVI
  GI50: > 100 µM (inactive)
SF-268
  GI50: > 100 µM (inactive)
K562
  GI50: > 100 µM (inactive)
SK-OV-3
  GI50: > 100 µM (inactive)
DLD-1
  GI50: > 100 µM (inactive)
ACHN
  GI50: > 100 µM (inactive)
UACC-62
  GI50: > 100 µM (inactive)
NCI-H226
  GI50: > 100 µM (inactive)
HOP-62
  GI50: > 100 µM (inactive)
KM-20L2
  GI50: > 100 µM (inactive)
SR
  GI50: > 100 µM (inactive)
786-0
  GI50: > 100 µM (inactive)
M14
  GI50: > 100 µM (inactive)
IGROV-1
  GI50: > 100 µM (inactive)
OVCAR-8
  GI50: > 100 µM (inactive)
NCI-H522
  GI50: 78.2 µM (inactive)
HCC 2998
  GI50: > 100 µM (inactive)
LXFL 529
  GI50: > 100 µM (inactive)
SW-620
  GI50: > 100 µM (inactive)
XF498
  GI50: > 100 µM (inactive)
HCT-15
  GI50: > 100 µM
SK-MEL-28
  GI50: > 100 µM (inactive)
SNB-78
  GI50: > 100 µM (inactive)
OVCAR-4
  GI50: > 100 µM (inactive)
SK-MEL-2
  GI50: > 100 µM (inactive)
SNB-19
  GI50: > 100 µM (inactive)
UACC-257
  GI50: > 100 µM (inactive)
SN12C
  GI50: > 100 µM (inactive)
TK-10
  GI50: > 100 µM (inactive)
NCI-H460
  GI50: 94.6 µM (inactive)
SF-295
  GI50: > 100 µM (inactive)
HL-60
  GI50: > 100 µM (inactive)

## C#CCNC(=O)N(CC#C)N=O
NCI-H23
  GI50: > 100 µM (inactive)
CCRF-CEM
  GI50: 37.9 µM (inactive)
CAKI-1
  GI50: > 100 µM (inactive)
OVCAR-3
  GI50: > 100 µM (inactive)
UO-31
  GI50: > 100 µM (inactive)
EKVX
  GI50: > 100 µM (inactive)
MOLT-4
  GI50: 31 µM (inactive)
SF-539
  GI50: > 100 µM (inactive)
RXF 393
  GI50: > 100 µM (inactive)
Malme-3M
  GI50: > 100 µM (inactive)
SNB-75
  GI50: > 100 µM (inactive)
KM12
  GI50: > 100 µM (inactive)
M19-MEL
  GI50: > 100 µM (inactive)
HOP-92
  GI50: > 100 µM (inactive)
DMS-273
  GI50: > 100 µM (inactive)
HT-29
  GI50: > 100 µM (inactive)
SK-MEL-5
  GI50: > 100 µM (inactive)
HCT-116
  GI50: > 100 µM (inactive)
DMS-114
  GI50: > 100 µM (inactive)
OVCAR-5
  GI50: > 100 µM (inactive)
U-251
  GI50: > 100 µM (inactive)
LOX IMVI
  GI50: 38.6 µM (inactive)
SF-268
  GI50: > 100 µM (inactive)
K562
  GI50: 24.8 µM (inactive)
SK-OV-3
  GI50: > 100 µM (inactive)
DLD-1
  GI50: > 100 µM (inactive)
ACHN
  GI50: > 100 µM (inactive)
UACC-62
  GI50: > 100 µM (inactive)
NCI-H226
  GI50: > 100 µM (inactive)
HOP-62
  GI50: > 100 µM (inactive)
KM-20L2
  GI50: > 100 µM (inactive)
786-0
  GI50: > 100 µM (inactive)
M14
  GI50: > 100 µM (inactive)
IGROV-1
  GI50: > 100 µM (inactive)
OVCAR-8
  GI50: > 100 µM (inactive)
A498
  GI50: > 100 µM (inactive)
NCI-H522
  GI50: 19.5 µM (inactive)
HCC 2998
  GI50: > 100 µM (inactive)
LXFL 529
  GI50: > 100 µM (inactive)
SW-620
  GI50: > 100 µM (inactive)
XF498
  GI50: > 100 µM (inactive)
HCT-15
  GI50: > 100 µM
HOP-18
  GI50: > 100 µM (inactive)
SK-MEL-28
  GI50: > 100 µM (inactive)
SNB-78
  GI50: > 100 µM (inactive)
OVCAR-4
  GI50: > 100 µM (inactive)
SK-MEL-2
  GI50: > 100 µM (inactive)
SNB-19
  GI50: > 100 µM (inactive)
UACC-257
  GI50: > 100 µM (inactive)
SN12C
  GI50: > 100 µM (inactive)
TK-10
  GI50: > 100 µM (inactive)
NCI-H460
  GI50: > 100 µM (inactive)
SF-295
  GI50: > 100 µM (inactive)
HL-60
  GI50: 25.3 µM (inactive)
